Key:
[1] = system: ADP-induced platelet aggregation; assay: in vitro anti-platelet aggregation induced by ADP (platelet-rich plasma, aggregometer); assay type: cell-based; details: Homo sapiens; platelet-rich plasma of healthy volunteers, inductive agent ADP (10 uM), 37° C.
From the text: (§1) The inventor conducted the anti-platelet aggregation activity screening for the compounds of the present invention, carried out the anti-platelet aggregation test by using the blood platelet which was closed to human physiological state and was not washed with water, and conducted the activity test of the in vitro anti-platelet aggregation induced by ADP, and also the activity test of the in vitro anti-platelet aggregation induced by AA (arachidonic acid) for some compounds. The present invention firstly discloses the activity test of the in vitro anti-platelet aggregation induced by AA conducted with said type of compounds.
(§2) The anti-platelet aggregation test of the compounds was conducted by the aggregometer (Model 400VS, Chrono-Log, Haverston, Pa.) from Chrono-Log Corp. ADP, AA (arachidonic acid), DMSO and trisodium citrate were purchased from Sigama.
(§3) The fasting venous blood of the subjects was collected, and placed into a 50 mL sampling tube containing 3.8% sodium citrate, and mixed homogeneously in a ratio of 1:9 (v/v) for anticoagulation, and centrifugalized at 300 rpm/min for 20 min.
(§4) The supernatant was taken to obtain platelet-rich blood plasma (PRP). The residual blood was then centrifugalized at 900 rpm/min for 10 min, and the supernatant fluid was taken to obtain platelet-poverty blood plasma (PPP). The analysis of platelet aggregation was conducted by using the aggregometer (Chrono-Log Corp.), wherein PRP and PPP were respectively added to two turbidimetric tubes. In the aggregometer, platelet-poverty blood plasma (PPP) was used as the control group. DMSO was used as the negative control. The turbidimetric tubes were incubated at 37° C. for 3 min. The PRP was stirred with a stirring rod at 900 rpm/min for 10-20 s, and the inductive agent ADP (10 uM) or AA (0.5 mM) was added to PRP, and start to record the aggregated wave patterns. The chart speed of the recorder (Model 707, Chrono-Log, Haverston, Pa., USA) was set up to be 1 cm min^−1, and the aggregation reaction was recorded for not less than 3 min. Finally, the apparatus automatically delineated the aggregation curve and calculated the results, i.e. maximum platelet aggregation rate. When the platelet aggregation was lower than 50% of the control group, the IC50 of the compound was calculated.

[2] = system: AA (arachidonic acid)-induced platelet aggregation; assay: in vitro anti-platelet aggregation induced by AA (arachidonic acid) (platelet-rich plasma, aggregometer); assay type: cell-based; details: Homo sapiens; platelet-rich plasma of healthy volunteers, inductive agent AA (0.5 mM), 37° C.
From the text: as §1, §2, §3, §4

Question: Which IC50 [1] does the source give for `CCCSc1nc(NCc2ccc(OC)cc2)c2ncn([C@@H]3O[C@H](CO)[C@@H](O)[C@H]3O)c2n1` [Example 17, 2-propylthio-6-([4-methoxylbenzyl]amino)-9-β-D-ribofuranosyl purine] here?
Answer: Its IC50 is 181 µM.

Question: `CCSc1nc(NC2CCCCC2)c2ncn([C@@H]3O[C@H](CO)[C@@H](O)[C@H]3O)c2n1` [Example 9, 2-ethylthio-6-cyclohexylamino-9-β-D-ribofuranosyl purine] was tested. Which IC50 [1] did it give?
Answer: Its IC50 is 104 µM.

Question: With `CCCCSc1nc(NC2CCCCC2)c2ncn([C@@H]3O[C@H](CO)[C@@H](O)[C@H]3O)c2n1` [Example 12, 2-butylthio-6-cyclohexylamino-9-β-D-ribofuranosyl purine] as the molecule, how does the IC50 [1] read?
Answer: Its IC50 is 83 µM.

Question: For `CCCSc1nc(NCCc2ccc(OC)cc2)c2ncn([C@@H]3O[C@H](CO)[C@@H](O)[C@H]3O)c2n1` [Example 24, 2-propylthio-6-([4-methoxylphenylethyl]amino)-9-β-D-ribofuranosyl purine], which IC50 [1] is on record?
Answer: Its IC50 is 267 µM.

Question: For `CCCSc1nc(NC2CCCCC2)c2ncn([C@@H]3O[C@H](CO)[C@@H](O)[C@H]3O)c2n1` [Example 10, 2-propylthio-6-cyclohexylamino-9-β-D-ribofuranosyl purine], which IC50 [1] is on record?
Answer: The IC50 was 151 µM.

Question: With `CCSc1nc(NC(C)c2ccccc2)c2ncn([C@@H]3O[C@H](CO)[C@@H](O)[C@H]3O)c2n1` (stereo partly drawn) [Example 16, 2-ethylthio-6-(1-phenylethyl)amino-9-β-D-ribofuranosyl purine] as the molecule, how does the IC50 [1] read?
Answer: Its IC50 is 197 µM.

Question: Which IC50 [1] does the source give for `COc1ccc(CCNc2nc(SC)nc3c2ncn3[C@@H]2O[C@H](CO)[C@@H](O)[C@H]2O)cc1` [Example 22, 2-methylthio-6-([4-methoxylphenylethyl]-amino)-9-β-D-ribofuranosyl purine] here?
Answer: Its IC50 is 153 µM.

Question: How did the IC50 [1] turn out when `CCCCCCNc1nc(SCCC)nc2c1ncn2[C@@H]1O[C@H](CO)[C@@H](O)[C@H]1O` [Example 8, 2-propylthio-6-n-hexylamino-9-β-D-ribofuranosyl purine] was run?
Answer: Its IC50 is 102 µM.

Question: How did the IC50 [1] turn out when `CCSc1nc(NCCc2ccc(OC)cc2)c2ncn([C@@H]3O[C@H](CO)[C@@H](O)[C@H]3O)c2n1` [Example 23, 2-ethylthio-6-([4-methoxylphenylethyl]amino)-9-β-D-ribofuranosyl purine] was run?
Answer: Its IC50 is 89 µM.

Question: Which IC50 [1] does the source give for `CCCCSc1nc(NCc2ccccc2)c2ncn([C@@H]3O[C@H](CO)[C@@H](O)[C@H]3O)c2n1` [Example 15, 2-butylthio-6-benzylamino-9-β-D-ribofuranosyl purine] here?
Answer: Its IC50 is 202 µM.

Question: How did the IC50 [1] turn out when `CCCSc1nc(NCc2ccccc2)c2ncn([C@@H]3O[C@H](CO)[C@@H](O)[C@H]3O)c2n1` [Example 14, 2-propylthio-6-benzylamino-9-β-D-ribofuranosyl purine] was run?
Answer: The IC50 was 216 µM.

Question: With `CC(C)Sc1nc(NC2CCCCC2)c2ncn([C@@H]3O[C@H](CO)[C@@H](O)[C@H]3O)c2n1` [Example 11, 2-isopropylthio-6-cyclohexylamino-9-β-D-ribofuranosyl purine] as the molecule, how does the IC50 [1] read?
Answer: The IC50 was 187 µM.

Question: With `CCCCSc1nc(NCCc2ccc(OC)cc2)c2ncn([C@@H]3O[C@H](CO)[C@@H](O)[C@H]3O)c2n1` [Example 25, 2-butylthio-6-([4-methoxylphenylethyl]amino)-9-β-D-ribofuranosyl purine] as the molecule, how does the IC50 [1] read?
Answer: The IC50 was 93 µM.

Question: For `CCCSc1nc(NCCc2cccc(OC)c2)c2ncn([C@@H]3O[C@H](CO)[C@@H](O)[C@H]3O)c2n1` [Example 27, 2-propylthio-6-([3-methoxylphenylethyl]amino)-9-β-D-ribofuranosyl purine], which IC50 [1] is on record?
Answer: The IC50 was 69 µM.

Question: How did the IC50 [1] turn out when `CCSc1nc(NCc2ccccc2)c2ncn([C@@H]3O[C@H](CO)[C@@H](O)[C@H]3O)c2n1` [Example 13, 2-ethylthio-6-benzylamino-9-β-D-ribofuranosyl purine] was run?
Answer: The IC50 was 176 µM.

Question: For `CCCCSc1nc(NCCc2ccccc2)c2ncn([C@@H]3O[C@H](CO)[C@@H](O)[C@H]3O)c2n1` [Example 21, 2-butylthio-6-phenylethylamino-9-β-D-ribofuranosyl purine], which IC50 [1] is on record?
Answer: Its IC50 is 59 µM.

Question: What about the IC50 [2] of the same molecule?
Answer: Its IC50 is > 300 µM.

Question: For `CCSc1nc(NCCc2ccccc2)c2ncn([C@@H]3O[C@H](CO)[C@@H](O)[C@H]3O)c2n1` [Example 19, 2-ethylthio-6-phenylethylamino-9-β-D-ribofuranosyl purine], which IC50 [1] is on record?
Answer: Its IC50 is 29 µM.

Question: And the IC50 [2]?
Answer: Its IC50 is 30 µM.

Question: What does the source list for `CSc1nc(NCCc2ccccc2)c2ncn([C@@H]3O[C@H](CO)[C@@H](O)[C@H]3O)c2n1` [Example 18, 2-methylthio-6-phenylethylamino-9-β-D-ribofuranosyl purine]?
Answer: IC50 [1]: 36 µM; IC50 [2]: 3 µM

Question: For `CCCSc1nc(NCCc2ccccc2)c2ncn([C@@H]3O[C@H](CO)[C@@H](O)[C@H]3O)c2n1` [Example 20, 2-propylthio-6-phenylethylamino-9-β-D-ribofuranosyl purine], which IC50 [1] is on record?
Answer: The IC50 was 52 µM.

Question: What about the IC50 [2] of the same molecule?
Answer: Its IC50 is 44 µM.

Question: `CCSc1nc(NCCc2cccc(OC)c2)c2ncn([C@@H]3O[C@H](CO)[C@@H](O)[C@H]3O)c2n1` [Example 26, 2-ethylthio-6-([3-methoxylphenylethyl]amino)-9-β-D-ribofuranosyl purine] was tested. Which IC50 [1] did it give?
Answer: The IC50 was 38 µM.

Question: What about the IC50 [2] of the same molecule?
Answer: Its IC50 is > 300 µM.

Reference: US9493502B2, “Ribofuranosyl purine compounds, methods for preparing the same and use thereof” (Beijing KBD Pharmaceuticals Co., Ltd., priority 2011, dated 2016)
